Assay results: paper PMC9504268, “Testing the Protective Effects of Sulfobutylether-Βeta-Cyclodextrin (SBECD) and Sugammadex against Chlorpromazine-Induced Acute Toxicity in SH-SY5Y Cell Line and in NMRI Mice” (Pharmaceutics, 2022)
Where a name gives a salt, the structure may show the parent alone. Read-outs that look alike come from different tables or passages of the source.

Key:
mice = test system: mice; design: method as in PMID 5630492, PMID 13813939; details: cited from earlier work
NMRI mice = experiment: in vivo; assay type: in vivo; details: typically
Protocol: (§1) Female NMRI mice weighing 25–35 g were used for the experiments. Animals were kept in the Laboratory Animal House of the Department of Pharmacology and Pharmacotherapy (University of Pécs) under standard pathogen-free conditions, and were provided with food pellets and water ad libitum. Mice were weighed then treated intraperitoneally (i.p.) with CPZ (120–300 mg/kg, 10 mL/kg, dissolved in physiological saline). Since CPZ typically provoked convulsions after 2 min, SBECD or SGD (500 or 2000 mg/kg, 10 mL/kg, dissolved in physiological saline) was administered i.v. immediately after the CPZ treatment. Control animals were treated with physiological saline (10 mL/kg i.p. and/or i.v.). Before and after the treatment, mice could consume feed and water ad libitum.
(§2) We decided to administer CPZ intraperitoneally because it leads to the more rapid appearance of the drug in the systemic circulation compared to the per os treatment. […] However, we applied CDs (SBECD or SGD) intravenously to produce immediately their high plasma concentrations as well as to avoid any potential local interactions of CDs with CPZ in the abdominal cavity.
(§3) In agreement with the 3Rs, the up-and-down method was used. One animal is treated at a time, starting around the LD50 value estimated. If the animal survived, then the following animal was treated with a higher dose. If the animal died, then the following animal was treated with a lower dose. This method provides a good estimation of LD50, while the number of animals sacrificed can be minimized. LD50 values were determined with the Probit Analysis (CI = 95%) as has been reported.

in vivo = assay type: in vivo, mice; details: female, NMRI, mouse, in vivo, female NMRI mice, read-out: LD50 (based on 24 h mortality)
Protocol: as §1, §2, §3

[1] = test system: several different cell lines; design: method as in PMID 4801078, PMID 6896707, PMID 23689352; details: cited from earlier work
SH-SY5Y cells [2] = experiment: SH-SY5Y cell viability based on cellular ATP levels (luciferin-luciferase); design: species or system human; details: 24 h
Protocol: The SH-SY5Y cell line (neuroblastoma, human; ATCC: CRL-2266) was maintained in DMEM supplemented with 10% FBS, penicillin (100 U/mL) and streptomycin (100 µg/mL) and incubated at 37 °C in a humidified environment with 5% CO2. Cells were trypsinized then transferred to 96-well plates (10^4 cells/well). Next day, the medium has been replaced and cells were treated for 24 h with CPZ (0–100 μM), with CDs (0–1500 μM), or with the combinations of CPZ and CDs (final volume: 200 μL/well). After 24 h treatment of cells with CPZ and/or CDs, cells were washed three times with 200 μL of PBS (pH 7.4; also containing 0.18 g/L CaCl2, and 0.2 g/L MgCl2). Since cell death results in the detachment of cells from the plate, these floating cells and cell debris were removed from the well during these washing steps. Cells were lysed with 200 μL of borate buffer (0.2 M, pH 9.2) containing Triton X-100 (0.1%) detergent and ethylenediaminetetraacetic acid (EDTA, 20 mM), then the plate was placed in a shaker for 5 min. These lysates were applied in cellular ATP and total protein analyses.
The changes in cell viability were primarily evaluated based on ATP levels. ATP content is an indicator of metabolically active cells; therefore, cellular ATP concentration is a suitable parameter to assess the number of viable cells. ATP levels were quantified based on the luciferin-luciferase reaction adapted for microplate method, as has been described earlier. To quantify cellular ATP concentrations, a 10 μL/well volume of lysates was transferred into white 96-well optical plates (VWR, Debrecen, Hungary), after which 100 μL/well of the dissolved ATP reagent was added. Luminescence data of ATP standards and samples were measured with 5 s integration time, employing an Enspire Multimode reader (Perkin Elmer, Waltham, MA, US).
IC50 values were determined by sigmoidal fitting (Hill1) employing the Origin software (OriginLab Corporation, Northampton, MA, US). Statistical analyses were performed employing one-way ANOVA (with Tukey post hoc) test using the IBM SPSS Statistics software (Armonk, NY, US), where the level of significance was set as p < 0.01.

SH-SY5Y cells [3] = experiment: SH-SY5Y cell viability based on total protein levels (fluorescamine); design: species or system human; details: 24 h
Protocol: The SH-SY5Y cell line (neuroblastoma, human; ATCC: CRL-2266) was maintained in DMEM supplemented with 10% FBS, penicillin (100 U/mL) and streptomycin (100 µg/mL) and incubated at 37 °C in a humidified environment with 5% CO2. Cells were trypsinized then transferred to 96-well plates (10^4 cells/well). Next day, the medium has been replaced and cells were treated for 24 h with CPZ (0–100 μM), with CDs (0–1500 μM), or with the combinations of CPZ and CDs (final volume: 200 μL/well). After 24 h treatment of cells with CPZ and/or CDs, cells were washed three times with 200 μL of PBS (pH 7.4; also containing 0.18 g/L CaCl2, and 0.2 g/L MgCl2). […]
Since certain compounds can modify cellular ATP levels (which can disrupt the correlation of ATP concentration with the number of living cells), total protein measurements were also performed to confirm the ATP-based results. Total protein levels were determined with fluorescamine (Fluram) reagent, as has been previously reported. […] After homogenization, the fluorescence signals of these samples were determined with Enspire Multimode plate reader (PerkinElmer) employing 385 nm and 490 nm as excitation and emission wavelengths, respectively. Total protein concentrations were determined based on bovine serum albumin calibration curve. […]

[4] = design: method as in PMID 16553456; details: in regard to cholesterol; cited from earlier work
HeLa cells = test system: HeLa cells; design: method as in PMID 36031178; details: cited from earlier work
[5] = veratridine toxin–CD complexes; cited from earlier work
[6] = design: method as in PMID 32376444; details: CPZ complex, cited from earlier work
[7] = design: method as in PMID 31726616, PMID 36031178; details: complexes with zearalenone; cited from earlier work
[8] = Homo sapiens, SH-SY5Y cells, sigmoidal fitting

## CN(C)CCCN1c2ccccc2Sc2ccc(Cl)cc21 [CPZ, Chlorpromazine hydrochloride]
mice
  i.p. LD50: 150 to 220 mg/kg
NMRI mice; CPZ i.p. 120–300 mg/kg
  time after which CPZ provoked convulsions: 2 min
NMRI mice; CPZ i.p., with a few exceptions
  time in which CPZ caused its lethal impact: ≤ 2 h
In vivo; 500 mg/kg, CPZ i.p. + 500 mg/kg SBECD i.v.
  LD50: 206 mg/kg
In vivo; 500 mg/kg, CPZ i.p. + 500 mg/kg SGD i.v.
  LD50: 200 mg/kg
In vivo; 2000 mg/kg, CPZ i.p. + 2000 mg/kg SBECD i.v.
  LD50: 233 mg/kg
In vivo; 2000 mg/kg, CPZ i.p. + 2000 mg/kg SGD i.v.
  LD50: 172 mg/kg
In vivo; CPZ i.p., control (physiological saline i.v.)
  LD50: 194 mg/kg
[1]
  concentration range of significant toxic effects: 10 to 60 µM
SH-SY5Y cells [2]; 0–100 μM tested
  concentration showing close the maximal toxicity: 50 µM
  lowest concentration causing statistically significant (p < 0.01) decrease of ATP and total protein levels/well: 5 µM
SH-SY5Y cells [2]; 20 μM CPZ
  decrease in ATP levels: approximately 60%
SH-SY5Y cells [2]; [8]
  IC50: 16 µM
SH-SY5Y cells [3]; 20 μM CPZ
  decrease in total protein levels: approximately 60%
SH-SY5Y cells [3]; [8]
  IC50: 15.1 µM

## CC(O)COC[C@H]1O[C@@H]2O[C@H]3[C@H](O)[C@@H](O)[C@@H](O[C@H]4[C@H](O)[C@@H](O)[C@@H](O[C@H]5[C@H](O)[C@@H](O)[C@@H](O[C@H]6[C@H](O)[C@@H](O)[C@@H](O[C@H]7[C@H](O)[C@@H](O)[C@@H](O[C@H]8[C@H](O)[C@@H](O)[C@@H](O[C@H]1[C@H](O)[C@H]2O)O[C@@H]8COCC(C)O)O[C@@H]7COCC(C)O)O[C@@H]6COCC(C)O)O[C@@H]5COCC(C)O)O[C@@H]4COCC(C)O)O[C@@H]3COCC(C)O (stereo partly drawn) [HPBCD, hydroxypropyl-β-CD]
[4]
  binding constant: 20000 L/mol

## OC[C@H]1O[C@@H]2O[C@H]3[C@H](O)[C@@H](O)[C@@H](O[C@H]4[C@H](O)[C@@H](O)[C@@H](O[C@H]5[C@H](O)[C@@H](O)[C@@H](O[C@H]6[C@H](O)[C@@H](O)[C@@H](O[C@H]7[C@H](O)[C@@H](O)[C@@H](O[C@H]8[C@H](O)[C@@H](O)[C@@H](O[C@H]1[C@H](O)[C@H]2O)O[C@@H]8CO)O[C@@H]7CO)O[C@@H]6CO)O[C@@H]5CO)O[C@@H]4CO)O[C@@H]3CO [β-CD]
HeLa cells
  effect on alternariol-induced cytotoxicity: did not affect

## OC[C@H]1O[C@@H]2O[C@H]3[C@H](O)[C@@H](O)[C@@H](O[C@H]4[C@H](O)[C@@H](O)[C@@H](O[C@H]5[C@H](O)[C@@H](O)[C@@H](O[C@H]6[C@H](O)[C@@H](O)[C@@H](O[C@H]7[C@H](O)[C@@H](O)[C@@H](O[C@H]8[C@H](O)[C@@H](O)[C@@H](O[C@H]9[C@H](O)[C@@H](O)[C@@H](O[C@H]1[C@H](O)[C@H]2O)O[C@@H]9CO)O[C@@H]8CO)O[C@@H]7CO)O[C@@H]6CO)O[C@@H]5CO)O[C@@H]4CO)O[C@@H]3CO [γ-CD]
[5]
  binding constant (K): approximately 10^4 L/mol
[6]; 1:1
  binding constant (K), 1:1 complexes: 500 L/mol
[6]; 1:2
  binding constant (K), 1:2 complexes: 6000 L/mol

## dimethyl-β-CD
[4]
  binding constant: 600000 L/mol

## methyl-β-CD
[7]
  binding constant: 10000 to 50000 L/mol

## succinyl–methyl-β-CD
[7]
  binding constant: 10000 to 50000 L/mol
